This passage reports Kd and IC50 results from patent publication US10526316B2, “Quinoxaline and pyridopyrazine derivatives as PI3Kβ inhibitors” (Janssen Pharmaceutica NV, priority 2015, dated 2020).

pIC50, pKd: −log10 of the molar value. Read-outs that look alike come from different tables or passages of the source.

As a reminder, the pKd is the Kd on a negative log10 scale, so that one unit is a factor of ten. As usually defined, the pIC50 is the negative decadic logarithm of the IC50, by convention in mol/L.

The target in one test is T1, PI3Kβ (Homo sapiens, UniProt P42338).
T1 construct: purchased DiscoveRx Corporation, San Diego (contract service, KINOMEscan)
T1 sequence (P42338 whole entry): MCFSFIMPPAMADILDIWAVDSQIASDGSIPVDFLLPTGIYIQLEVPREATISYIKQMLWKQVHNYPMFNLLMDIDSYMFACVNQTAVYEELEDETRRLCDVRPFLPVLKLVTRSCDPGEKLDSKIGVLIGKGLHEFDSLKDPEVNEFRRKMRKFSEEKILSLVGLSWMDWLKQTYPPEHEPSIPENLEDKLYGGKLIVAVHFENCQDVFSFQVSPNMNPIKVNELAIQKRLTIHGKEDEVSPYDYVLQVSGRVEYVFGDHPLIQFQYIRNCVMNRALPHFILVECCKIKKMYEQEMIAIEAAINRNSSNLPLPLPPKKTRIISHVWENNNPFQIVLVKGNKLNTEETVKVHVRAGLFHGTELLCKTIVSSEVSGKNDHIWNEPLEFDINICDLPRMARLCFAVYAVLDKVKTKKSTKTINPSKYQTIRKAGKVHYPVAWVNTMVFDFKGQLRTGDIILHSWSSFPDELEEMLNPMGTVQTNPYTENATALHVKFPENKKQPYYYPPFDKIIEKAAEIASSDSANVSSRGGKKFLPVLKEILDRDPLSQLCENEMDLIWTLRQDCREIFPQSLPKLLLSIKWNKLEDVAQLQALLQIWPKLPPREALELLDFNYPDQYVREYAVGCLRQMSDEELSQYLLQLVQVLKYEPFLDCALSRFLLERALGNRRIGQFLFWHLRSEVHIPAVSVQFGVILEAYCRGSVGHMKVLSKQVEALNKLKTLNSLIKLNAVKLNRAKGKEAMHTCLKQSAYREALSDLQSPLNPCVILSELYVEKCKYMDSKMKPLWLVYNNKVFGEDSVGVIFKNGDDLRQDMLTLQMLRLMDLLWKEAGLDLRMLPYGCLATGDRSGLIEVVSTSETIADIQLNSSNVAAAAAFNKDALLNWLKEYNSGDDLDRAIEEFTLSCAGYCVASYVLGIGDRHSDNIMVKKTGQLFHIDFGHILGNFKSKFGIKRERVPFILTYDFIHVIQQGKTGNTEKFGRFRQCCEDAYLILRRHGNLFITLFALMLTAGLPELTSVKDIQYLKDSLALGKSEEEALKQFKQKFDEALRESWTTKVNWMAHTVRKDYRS
Kind of test: Enzyme binding assay (KINOMEscan, DiscoveRx). The note with it: PIK3Cβ_h, read-out: Kd PIK3Cβ_h. On the procedure: (§1) Enzyme Binding Assays (KINOMEscan®)
Kinase enzyme binding affinities of compounds disclosed herein were determined using the KINOMEscan technology performed by DiscoveRx Corporation, San Diego, Calif., USA (www.kinomescan.com). Table A reports the obtained Kd values (nM), with the Kd being the inhibitor binding constant: […]

In a further test the target is T2, PI3Kδ (Homo sapiens, UniProt O00329).
T2 construct: purchased DiscoveRx Corporation, San Diego (contract service, KINOMEscan)
T2 sequence (O00329 1-1044): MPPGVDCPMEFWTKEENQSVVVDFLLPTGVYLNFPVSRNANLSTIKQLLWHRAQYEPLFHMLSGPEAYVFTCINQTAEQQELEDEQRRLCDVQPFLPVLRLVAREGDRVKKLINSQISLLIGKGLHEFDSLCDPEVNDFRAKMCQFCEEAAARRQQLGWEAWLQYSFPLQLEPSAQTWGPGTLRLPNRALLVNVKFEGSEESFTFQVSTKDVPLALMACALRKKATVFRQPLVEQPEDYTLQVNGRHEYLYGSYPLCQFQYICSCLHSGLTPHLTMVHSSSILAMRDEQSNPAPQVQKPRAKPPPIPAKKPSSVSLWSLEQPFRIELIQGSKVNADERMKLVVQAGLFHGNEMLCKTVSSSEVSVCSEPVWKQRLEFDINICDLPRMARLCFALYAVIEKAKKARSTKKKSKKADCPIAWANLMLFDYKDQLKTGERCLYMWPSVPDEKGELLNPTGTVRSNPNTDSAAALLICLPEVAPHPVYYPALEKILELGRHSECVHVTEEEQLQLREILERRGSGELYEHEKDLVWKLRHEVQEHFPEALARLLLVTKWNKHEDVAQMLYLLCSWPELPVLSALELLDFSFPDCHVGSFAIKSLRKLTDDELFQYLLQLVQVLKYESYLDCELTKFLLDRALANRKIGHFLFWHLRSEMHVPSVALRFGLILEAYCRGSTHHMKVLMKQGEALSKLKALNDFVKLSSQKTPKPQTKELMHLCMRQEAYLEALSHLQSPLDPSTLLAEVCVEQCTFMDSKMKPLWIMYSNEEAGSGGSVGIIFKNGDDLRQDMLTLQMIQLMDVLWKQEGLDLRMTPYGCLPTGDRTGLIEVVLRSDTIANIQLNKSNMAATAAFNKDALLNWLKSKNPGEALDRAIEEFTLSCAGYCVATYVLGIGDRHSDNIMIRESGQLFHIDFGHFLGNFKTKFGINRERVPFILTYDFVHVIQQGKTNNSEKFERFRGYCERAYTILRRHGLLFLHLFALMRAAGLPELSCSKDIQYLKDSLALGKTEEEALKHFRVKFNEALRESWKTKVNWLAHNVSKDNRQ
Kind of test: Enzyme binding assay (KINOMEscan, DiscoveRx). As to conditions: PIK3Cδ_h. On the procedure: as §1
(§2) Kinase enzyme binding affinities of compounds disclosed herein were determined using the KINOMEscan technology performed by DiscoveRx Corporation, San Diego, Calif., USA (www.kinomescan.com).

Test [1] deals with T3, kinase enzymes (Homo sapiens, UniProt P42336).
T3 construct: purchased DiscoveRx Corporation, San Diego (contract service, KINOMEscan)
T3 sequence (P42336 whole entry): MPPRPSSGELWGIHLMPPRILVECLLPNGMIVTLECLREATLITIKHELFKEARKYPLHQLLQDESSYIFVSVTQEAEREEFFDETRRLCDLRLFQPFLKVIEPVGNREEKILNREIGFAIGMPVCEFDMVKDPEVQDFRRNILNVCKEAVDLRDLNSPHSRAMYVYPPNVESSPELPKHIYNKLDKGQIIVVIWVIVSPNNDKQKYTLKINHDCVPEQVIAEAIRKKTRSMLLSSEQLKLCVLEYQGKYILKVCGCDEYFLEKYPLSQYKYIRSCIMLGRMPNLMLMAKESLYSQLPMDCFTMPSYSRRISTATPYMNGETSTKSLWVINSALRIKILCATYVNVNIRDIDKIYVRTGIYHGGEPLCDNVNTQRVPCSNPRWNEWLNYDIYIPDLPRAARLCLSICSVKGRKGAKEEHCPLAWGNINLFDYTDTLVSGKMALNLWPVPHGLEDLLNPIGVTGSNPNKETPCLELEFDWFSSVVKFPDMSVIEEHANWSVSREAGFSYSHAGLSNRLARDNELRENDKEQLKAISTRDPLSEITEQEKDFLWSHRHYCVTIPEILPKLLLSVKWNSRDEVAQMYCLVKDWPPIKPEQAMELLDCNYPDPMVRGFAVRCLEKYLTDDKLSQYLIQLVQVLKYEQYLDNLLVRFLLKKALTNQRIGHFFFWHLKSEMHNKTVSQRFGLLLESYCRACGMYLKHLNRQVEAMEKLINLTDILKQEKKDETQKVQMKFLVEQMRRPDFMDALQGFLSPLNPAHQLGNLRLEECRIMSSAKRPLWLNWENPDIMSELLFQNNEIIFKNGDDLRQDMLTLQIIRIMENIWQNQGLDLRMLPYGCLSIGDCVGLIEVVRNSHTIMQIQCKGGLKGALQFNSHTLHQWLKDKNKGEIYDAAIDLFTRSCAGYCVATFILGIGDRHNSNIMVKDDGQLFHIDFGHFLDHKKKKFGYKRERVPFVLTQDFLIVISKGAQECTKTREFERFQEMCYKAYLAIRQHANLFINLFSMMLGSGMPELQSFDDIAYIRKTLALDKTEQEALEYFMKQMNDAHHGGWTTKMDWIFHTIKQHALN
Kind of test: Enzyme binding assay (KINOMEscan, DiscoveRx), further kinases of Table A. The note with it: PIK3Cα_h. On the procedure:
as §1, §2

The target of test [2] is T4, kinase enzymes (Homo sapiens, UniProt P42345).
T4 construct: purchased DiscoveRx Corporation, San Diego (contract service, KINOMEscan)
The test is described as above. The note with it: MTOR_h. On the procedure: as §1, §2

Test [3] deals with T5, kinase enzymes (Homo sapiens, UniProt P48736).
T5 construct: purchased DiscoveRx Corporation, San Diego (contract service, KINOMEscan)
T5 sequence (P48736 whole entry): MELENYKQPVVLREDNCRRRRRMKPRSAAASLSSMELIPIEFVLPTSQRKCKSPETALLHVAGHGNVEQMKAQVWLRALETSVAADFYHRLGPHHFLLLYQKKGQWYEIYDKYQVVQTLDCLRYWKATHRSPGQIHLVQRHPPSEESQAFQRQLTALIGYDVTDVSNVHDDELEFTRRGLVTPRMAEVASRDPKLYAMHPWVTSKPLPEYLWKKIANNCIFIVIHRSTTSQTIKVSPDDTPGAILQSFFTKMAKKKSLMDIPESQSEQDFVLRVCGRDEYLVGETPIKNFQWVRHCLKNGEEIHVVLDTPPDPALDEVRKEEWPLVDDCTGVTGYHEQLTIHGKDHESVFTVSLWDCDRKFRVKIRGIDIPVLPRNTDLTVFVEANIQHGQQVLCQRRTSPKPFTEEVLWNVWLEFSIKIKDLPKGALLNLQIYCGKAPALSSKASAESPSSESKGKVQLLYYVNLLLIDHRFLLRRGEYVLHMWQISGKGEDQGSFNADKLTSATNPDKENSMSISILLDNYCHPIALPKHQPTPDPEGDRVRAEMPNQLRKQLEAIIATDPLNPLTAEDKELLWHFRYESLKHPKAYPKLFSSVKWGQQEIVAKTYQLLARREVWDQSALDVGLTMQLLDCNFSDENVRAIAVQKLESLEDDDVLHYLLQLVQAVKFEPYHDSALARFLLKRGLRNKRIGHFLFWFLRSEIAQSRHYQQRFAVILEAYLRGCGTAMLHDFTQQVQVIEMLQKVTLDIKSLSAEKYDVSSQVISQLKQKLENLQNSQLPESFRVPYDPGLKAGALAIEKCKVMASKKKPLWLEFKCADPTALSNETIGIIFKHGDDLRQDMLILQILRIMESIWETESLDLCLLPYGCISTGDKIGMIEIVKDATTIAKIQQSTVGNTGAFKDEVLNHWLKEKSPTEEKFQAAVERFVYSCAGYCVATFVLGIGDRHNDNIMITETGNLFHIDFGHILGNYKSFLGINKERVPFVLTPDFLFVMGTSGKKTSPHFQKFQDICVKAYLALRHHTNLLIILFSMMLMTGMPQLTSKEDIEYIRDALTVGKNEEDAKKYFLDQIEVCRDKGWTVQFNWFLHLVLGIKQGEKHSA
The description is as above. The note with it: PIK3Cγ_h. On the procedure: as §1, §2

For test [4], the system named is Akt phosphorylated at Ser473 in PC-3 cells. Kind of test: Cellular assay: phosphorylation of Akt at Ser473 in PC-3 cells (MSD ELISA). The test is classed as cell-based. As to conditions: PC-3 cells, 60 min compound incubation, MSD ELISA, read-out: IC50 pAkt_S473. As for the experimental part:
(§3) Cellular activity of PI3KP inhibitors was determined by quantifying the phosphorylation of Akt in PC-3 cells. Akt phosphorylated at Ser473 and Thr308 were measured using an enzyme-linked immunosorbent assay (ELISA; Meso Scale Discovery (MSD), Gaithersburg. Md.) and specific primary antibodies from MSD.
(§4) On day 2, compound or DMSO (0.3%) was added and cells were further incubated for 60 min at 37° C. 5% CO2 in a total volume of 100 μl of medium.
(§5) The phosphoprotein assay was executed according to vendor instructions in the Phospho-Akt (Ser473) Assay Whole Cell Lysate Kit (MSD # K15100D-3) and the Phospho-Akt (Thr308) Assay Whole Cell Lysate Kit (MSD # K151DYD-3) using the lysis, blocking and wash buffer provided.
(§6) Briefly, at the end of the cell treatment period, media were removed by aspiration and adherent cells were lysed in 50 μl ice-cold lysis buffer. MSD plates are supplied pre-coated with capture antibodies for Phospho-Akt (Ser473 and Thr308). After blocking, lysates from tissue culture plates were added and plates were washed. Then, a solution containing the detection antibody (anti-total Akt conjugated with an electrochemiluminescent compound-MSD Sulfo-tag label) was added. The signals were detected using an MSD SECTOR Imager 6000 and are proportional to the phospho-Akt titres.
(§7) Data were processed. […] From these concentration-response curves, the IC50 values were calculated. Five concentrations were used for curve fitting.
(In general: An ELISA detects its analyte on a solid surface through an enzyme-linked reagent.)

The subject of test [5] is Akt phosphorylated at Thr308 in PC-3 cells. Kind of test: Cellular assay: phosphorylation of Akt at Thr308 in PC-3 cells (MSD ELISA). As to conditions: PC-3 cells, 60 min compound incubation, MSD ELISA, read-out: IC50 pAkt_Thr308. It counts as cell-based. As for the experimental part: as §3, §4, §5, §6, §7

Turning to `CC(C)NCCNC(=O)c1cc(C(C)Nc2ccc(F)c(F)c2)c2nc(N3CCOCC3)cnc2c1` (single isomer, unassigned) [Compound 364a], the pKd was 9.00 at PI3Kβ; 6.69 on PI3Kδ; 5.61 at kinase enzymes [1]; under 4.52 at kinase enzymes [2]; 5.16 at kinase enzymes [3]. The figures for the pIC50 in test [4] and in test [5] were 7.46 and 7.59, respectively.

With `CC(Oc1cccc(F)c1)c1cc(C(=O)N(C)C)cc2ncc(N3CCOCC3)nc12` (racemic) [Compound 339], the negative-log Kd (pKd) is 6.37 on PI3Kβ; 5.61 at PI3Kδ; 5.23 on kinase enzymes [1]; 4.79 on kinase enzymes [2]; 5.03 at kinase enzymes [3]. Further, the pIC50 in test [4] and in test [5] was under 6.29 in each case.

Regarding `CNCCNC(=O)c1cc([C@@H](C)Oc2cccc(F)c2)c2nc(N3CCOCC3)cnc2c1` [Compound 122], the pKd was 9.52 on PI3Kβ; 6.82 at PI3Kδ; 5.54 on kinase enzymes [1]; 4.59 on kinase enzymes [2]; 5.25 at kinase enzymes [3]. For the same molecule, the pIC50 in test [4] is 7.40; in test [5], 7.59.

`CC(Nc1cc(F)cc(F)c1)c1cc(CN2CCO[C@H](CO)C2)cc2ncc(N3CCOCC3)nc12` (single isomer, unassigned) [Compound 196]: the pKd at PI3Kβ is 8.30; on PI3Kδ, 6.09; on kinase enzymes [1] it was 5.55; on kinase enzymes [2], under 4.52; at kinase enzymes [3], 4.80. Moreover, the pIC50 is 6.74 in test [4] (Homo sapiens, PC-3, 1 h) and 7.04 in test [5] (Homo sapiens, PC-3, 1 h).

For `CC(Nc1cc(F)cc(F)c1)c1cc(CN2CCS(=O)(=O)CC2)cc2ncc(N3CCOCC3)nc12` (single isomer, unassigned) [Compound 157], the pKd is 6.99 on PI3Kβ; 4.70 on PI3Kδ; 4.88 on kinase enzymes [1]; under 4.52 on kinase enzymes [2]; under 4.52 at kinase enzymes [3]. For the same molecule, the pIC50 in test [4] is under 6.29; in test [5], 6.38.

In the case of `CC(Nc1cc(F)c(F)c(F)c1)c1cc(C(=O)N2CCCN(C(C)C)CC2)cc2ncc(N3CCOCC3)nc12` (single isomer, unassigned) [Compound 388b], the pKd is 8.52 at PI3Kβ; 6.70 on PI3Kδ; 5.66 on kinase enzymes [1]; under 4.52 on kinase enzymes [2]; 5.62 at kinase enzymes [3]. For the same molecule, the pIC50 is 7.42 in test [4] (Homo sapiens, PC-3, 1 h) and 7.72 in test [5] (Homo sapiens, PC-3, 1 h).

Regarding `COC(=O)c1cc(C(C)Nc2cc(F)cc(Cl)c2)c2nc(N3CCOCC3)cnc2c1` (stereo not shown) [Compound 99], the pKd at PI3Kβ was 7.28; at PI3Kδ it was 5.33; on kinase enzymes [1], 5.01; on kinase enzymes [2], under 4.52; on kinase enzymes [3], 4.94. In addition, the pIC50 in test [4] (Homo sapiens, PC-3, 1 h) was under 6.29; in test [5] (Homo sapiens, PC-3, 1 h) it was 6.45.

Regarding `O=C(NCCO)c1cc(N2CCCC2c2cc(F)cc(F)c2)c2nc(N3CCOCC3)cnc2c1` (single isomer, unassigned) [Compound 244], the pKd on PI3Kβ is 6.13; on PI3Kδ, 5.38; on kinase enzymes [1], 5.08; on kinase enzymes [2], 4.70; on kinase enzymes [3], 4.90. The pIC50 was under 6.29 in test [4] (Homo sapiens, PC-3, 1 h) and under 6.29 in test [5] (Homo sapiens, PC-3, 1 h).

Regarding `CC(C)NCCNC(=O)c1cc(C(C)Oc2cccc(F)c2)c2nc(N3CCOCC3)cnc2c1` (single isomer, unassigned) [Compound 314a], the pKd on PI3Kβ was 6.38; on PI3Kδ it was 5.22; at kinase enzymes [1], 4.76; on kinase enzymes [2], 4.72; at kinase enzymes [3] it was 4.52. For the same molecule, the negative-log IC50 (pIC50) in test [4] was about 6.39; in test [5], under 6.29.

For `CC(Nc1ccc(F)c(F)c1)c1cc(C(=O)N2CCC[C@H](O)C2)cc2ncc(N3CCOCC3)nc12` (single isomer, unassigned) [Compound 302b], the pKd is 8.52 at PI3Kβ; 6.73 at PI3Kδ; 5.96 at kinase enzymes [1]; under 4.52 at kinase enzymes [2]; 4.93 on kinase enzymes [3]. For the same molecule, the pIC50 in test [4] was 7.27; in test [5] it was 7.41.

As to `CC(Nc1cc(F)c(F)c(F)c1)c1cc(C(=O)NCCO)cc2ncc(N3CCOCC3)nc12` (single isomer, unassigned) [Compound 214], the pKd on PI3Kβ was 5.91; on PI3Kδ it was under 4.52; on kinase enzymes [1], under 4.52; at kinase enzymes [2] it was under 4.52; at kinase enzymes [3], 5.34. Further, the pIC50 in test [4] and in test [5] was under 6.29 throughout.

`CN(C)C(=O)c1cc(N2CCC2c2ccc(F)cc2)c2nc(N3CCOCC3)cnc2c1` (single isomer, unassigned) [Compound 397b]: the pKd at PI3Kβ is 7.60; at PI3Kδ it was 6.06; at kinase enzymes [1] it was 5.73; at kinase enzymes [2] it was under 4.52; on kinase enzymes [3], 4.91. In addition, the pIC50 in test [4] is about 6.29; in test [5], under 6.29.

Turning to `CC(Oc1cc(F)cc(F)c1)c1cc(C(=O)N2CCC2)cc2ncc(N3CCO[C@H](CO)C3)nc12` (mixture of isomers) [Compound 81], the pKd is 7.52 on PI3Kβ; 5.58 on PI3Kδ; 4.72 at kinase enzymes [1]; under 4.52 at kinase enzymes [2]; 4.53 at kinase enzymes [3]. Besides, the negative logarithm of the IC50 (pIC50) in test [4] (Homo sapiens, PC-3, 1 h) is about 6.31; in test [5] (Homo sapiens, PC-3, 1 h), 6.66.

On to `CC(Oc1cc(F)ccc1NCCN)c1cc(C(=O)N(C)C)cc2ncc(N3CCOCC3)nc12` (stereo not shown) [Compound 79], for which the pKd on PI3Kβ is 8.70; on PI3Kδ, 6.69; at kinase enzymes [1], 5.64; on kinase enzymes [2], under 4.52; on kinase enzymes [3] it was 4.70. Moreover, the pIC50 was 6.80 in test [4] (Homo sapiens, PC-3, 1 h) and 6.91 in test [5] (Homo sapiens, PC-3, 1 h).

For `Cc1c(F)cccc1NCc1cc(C(=O)NCCO)cc2ncc(N3CCOCC3)nc12` [Compound 381], the pKd is 7.59 at PI3Kβ; 5.42 at PI3Kδ; 5.45 at kinase enzymes [1]; under 4.52 on kinase enzymes [2]; 5.08 on kinase enzymes [3]. For the same molecule, the pIC50 in test [4] (Homo sapiens, PC-3, 1 h) was 6.68; in test [5] (Homo sapiens, PC-3, 1 h), 6.93.

As for `CC(Oc1cc(F)cc(F)c1)c1cc(C(=O)N(C)CCO)cc2ncc(N3CCOCC3)nc12` (racemic) [Compound 59], the pKd at PI3Kβ is 8.52; at PI3Kδ it was 6.48; on kinase enzymes [1], 5.92; on kinase enzymes [2] it was under 4.52; on kinase enzymes [3] it was 4.97. In addition, the negative logarithm of the IC50 (pIC50) in test [4] (Homo sapiens, PC-3, 1 h) was 6.58; in test [5] (Homo sapiens, PC-3, 1 h) it was 6.96.
